Earlier results as cited in patent publication US8664187B2, “Methods of treatment of endobronchial infections” (Novartis AG, priority 2004, dated 2014).
Read-outs that look alike come from different tables or passages of the source.

Columns and labels:
P. aeruginosa isolates = settings: CF patients, 1993
P. aeruginosa [1] = settings: 300 mg inhaled twice daily, P<0.001 vs placebo
P. aeruginosa [2] = settings: 600 mg tid aerosolized; 71 CF patients

SMILES: NC[C@H]1O[C@H](O[C@H]2[C@H](O)[C@@H](O[C@H]3O[C@H](CO)[C@@H](O)[C@H](N)[C@H]3O)[C@H](N)C[C@@H]2N)[C@H](N)C[C@@H]1O [tobramycin]
- MICs of 90% of isolates (P. aeruginosa isolates): ≤ 16 µg/mL
- MICs of 98% of all isolates (P. aeruginosa isolates): ≤ 128 µg/mL
- average decrease in P. aeruginosa density (P. aeruginosa [1]; 28 days on/28 days off, Week 0 to Week 20): 0.8 log10
- average decrease in P. aeruginosa density (P. aeruginosa [1]; Week 0 to Week 4): 1.9 log10
- spirometry (P. aeruginosa [2]): improved spirometry
- sputum density of P. aeruginosa (P. aeruginosa [2]): significant reduction in sputum density
- concentrations effective in inhibiting the growth of many Gram-negative bacteria (Gram-negative bacteria): < 4 µg/mL
